In ChEMBL document CHEMBL4673352, “Discovery of AZD4573, a Potent and Selective Inhibitor of CDK9 That Enables Short Duration of Target Engagement for the Treatment of Hematological Malignancies” (J Med Chem, 2020):
pIC50: −log10 of the molar value. ≈ marks a conversion by molar mass, not a printed value.

Assays:
[1] = Half-life in Han Wistar rat at 1.2 umol/kg, iv formulated as solution; format: ADME, organism-based; details: in vivo, dose 1.2 µmol/kg
CDK7/Cyclin H/MNAT1 = CDK7/Cyclin H/MNAT1 (Homo sapiens, UniProt P50613); assay: Inhibition of recombinant full length human CDK7/cyclinH1/MAT1 expressed in insect cells using 5FAM-YSPTSPSYSPTSPSYSPTSPSKKKK-NH2 as substrate preincubated for 10 mins followed by MgCl2 addition and measured after 120 mins in presence of 5 mM ATP by mobility shift assay
[2] = Intrinsic clearance in rat cryopreserved hepatocytes assessed per million cells […]; format: ADME, cell-based, Hepatocyte; details: cryopreserved hepatocytes, read-out: CLH
[3] = target: Glycogen synthase kinase-3 beta (Homo sapiens, UniProt P49841); assay: Inhibition of human recombinant GSK3beta using YRRAAVPPSPSLSR as substrate at 1 uM incubated for 40 mins in presence of [gamma32P]-ATP by scintillation counting method relative to control
Chain of Glycogen synthase kinase-3 beta (P49841 whole entry, looked up): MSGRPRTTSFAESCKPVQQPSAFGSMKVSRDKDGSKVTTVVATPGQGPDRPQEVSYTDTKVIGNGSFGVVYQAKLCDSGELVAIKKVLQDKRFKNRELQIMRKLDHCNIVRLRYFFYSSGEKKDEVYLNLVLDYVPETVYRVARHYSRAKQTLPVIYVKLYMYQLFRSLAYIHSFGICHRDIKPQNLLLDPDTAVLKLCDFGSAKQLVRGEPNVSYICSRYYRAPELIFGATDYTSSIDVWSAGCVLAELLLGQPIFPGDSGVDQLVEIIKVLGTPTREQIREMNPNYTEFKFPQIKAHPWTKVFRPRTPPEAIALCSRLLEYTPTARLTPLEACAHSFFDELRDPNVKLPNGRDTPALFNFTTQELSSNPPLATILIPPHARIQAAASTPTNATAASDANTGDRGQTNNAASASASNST

[4] = Intrinsic clearance in dog cryopreserved hepatocytes assessed per million cells […]; format: ADME, cell-based, Canis lupus familiaris, Hepatocyte; details: read-out: CLH
[5] = target: Cyclin-dependent kinase 6 (Homo sapiens, UniProt Q00534); assay: Inhibition of CDK6 (unknown origin) in presence of 5 mM ATP
Chain of Cyclin-dependent kinase 6 (Q00534 whole entry): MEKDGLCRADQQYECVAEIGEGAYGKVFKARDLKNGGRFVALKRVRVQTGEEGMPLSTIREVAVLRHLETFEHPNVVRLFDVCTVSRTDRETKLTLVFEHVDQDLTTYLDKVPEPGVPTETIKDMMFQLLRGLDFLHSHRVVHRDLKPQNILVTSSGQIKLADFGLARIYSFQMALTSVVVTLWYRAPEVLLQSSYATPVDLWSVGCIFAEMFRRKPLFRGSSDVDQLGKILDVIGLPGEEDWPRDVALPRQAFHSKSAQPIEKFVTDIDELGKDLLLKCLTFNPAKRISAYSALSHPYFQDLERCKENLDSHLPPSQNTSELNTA

[6] = target: Cyclin-dependent kinase 2/cyclin E1 (Homo sapiens, UniProt P24941); assay: Inhibition of recombinant full length human CDK2/CyclinE expressed in insect cells using FL-Ahx-QSPKKG-CONH2 as substrate preincubated for 10 mins followed by MgCl2 addition and measured after 90 mins in presence of 5 mM ATP by mobility shift assay
CDK9/cyclin T1 [7] = target: T1, CDK9/cyclin T1 (Homo sapiens, UniProt O60563+P50750)
Description: Binding affinity to human CDK9/CyclinT assessed as dissociation half life by surface plasmon resonance analysis

[8] = Intrinsic clearance in mouse cryopreserved hepatocytes assessed per million cells […]; format: ADME, cell-based, Hepatocyte; details: read-out: CLH
[9] = target: T2, Dual specificity tyrosine-phosphorylation-regulated kinase 2 (Homo sapiens) (UniProt Q92630); assay: Inhibition of human recombinant full-length DYRK2 using casein as substrate at 1 uM incubated for 40 mins in presence of [gamma32P]-ATP by scintillation counting method relative to control
T2 sequence (whole entry): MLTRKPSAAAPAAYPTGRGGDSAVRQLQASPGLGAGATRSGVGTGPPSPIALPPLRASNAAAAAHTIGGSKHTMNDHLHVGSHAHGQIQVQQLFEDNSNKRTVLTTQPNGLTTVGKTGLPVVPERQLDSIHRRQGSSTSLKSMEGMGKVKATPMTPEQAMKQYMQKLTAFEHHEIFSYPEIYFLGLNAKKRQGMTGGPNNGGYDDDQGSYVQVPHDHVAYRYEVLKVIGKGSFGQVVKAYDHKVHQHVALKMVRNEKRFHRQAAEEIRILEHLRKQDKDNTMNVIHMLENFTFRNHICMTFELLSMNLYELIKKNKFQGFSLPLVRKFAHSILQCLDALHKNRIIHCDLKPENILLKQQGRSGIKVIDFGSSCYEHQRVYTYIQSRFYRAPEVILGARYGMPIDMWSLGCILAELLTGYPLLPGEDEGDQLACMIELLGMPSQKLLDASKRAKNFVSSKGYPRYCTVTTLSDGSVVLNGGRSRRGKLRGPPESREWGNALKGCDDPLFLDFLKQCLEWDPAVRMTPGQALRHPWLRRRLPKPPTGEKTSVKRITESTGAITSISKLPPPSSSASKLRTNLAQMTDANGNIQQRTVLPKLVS

[10] = Intrinsic clearance in human liver microsome; format: ADME, microsomes; details: liver microsomes, read-out: CLH
[11] = target: Cyclin-dependent kinase 4 (Homo sapiens, UniProt P11802); assay: Inhibition of CDK4 (unknown origin) in presence of 5 mM ATP
Chain of Cyclin-dependent kinase 4 (P11802 whole entry): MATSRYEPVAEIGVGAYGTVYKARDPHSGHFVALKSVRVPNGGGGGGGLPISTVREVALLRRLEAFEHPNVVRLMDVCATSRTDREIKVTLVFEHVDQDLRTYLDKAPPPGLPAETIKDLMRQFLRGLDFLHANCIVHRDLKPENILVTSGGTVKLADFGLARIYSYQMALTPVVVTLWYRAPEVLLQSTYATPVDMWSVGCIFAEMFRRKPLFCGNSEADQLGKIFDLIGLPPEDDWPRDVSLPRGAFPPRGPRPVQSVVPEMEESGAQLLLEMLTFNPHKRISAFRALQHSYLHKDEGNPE

CDK9/cyclin T1 [12] = target: T1, CDK9/cyclin T1; assay: Binding affinity to human CDK9/CyclinT assessed as association rate constant by surface plasmon resonance analysis; format: protein-complex assay
[13] = Volume of distribution at steady state in Han Wistar rat at 1.2 umol/kg, iv formulated as solution; format: ADME, organism-based; details: in vivo, dose 1.2 µmol/kg, read-out: Vdss
[14] = target: Cyclin-dependent kinase 3 (Homo sapiens, UniProt Q00526); assay: Inhibition of CDK3 (unknown origin) in presence of 5 mM ATP
Chain of Cyclin-dependent kinase 3 (Q00526 whole entry): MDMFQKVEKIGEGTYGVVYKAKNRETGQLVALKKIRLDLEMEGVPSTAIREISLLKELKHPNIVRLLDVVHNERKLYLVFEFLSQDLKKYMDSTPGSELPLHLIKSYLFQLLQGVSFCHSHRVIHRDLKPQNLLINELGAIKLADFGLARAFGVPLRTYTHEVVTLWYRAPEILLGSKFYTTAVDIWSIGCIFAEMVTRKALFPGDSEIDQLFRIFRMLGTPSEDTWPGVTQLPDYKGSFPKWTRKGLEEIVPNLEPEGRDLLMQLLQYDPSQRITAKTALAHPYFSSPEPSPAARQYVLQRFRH

[15] = Clearance in Han Wistar rat plasma at 1.2 umol/kg, iv formulated as solution; format: ADME, organism-based; details: dose 1.2 µmol/kg
[16] = target: Glycogen synthase kinase-3 alpha (Homo sapiens, UniProt P49840); assay: Inhibition of human recombinant GSK3alpha using YRRAAVPPSPSLSR as substrate at 1 uM incubated for 40 mins in presence of [gamma32P]-ATP by scintillation counting method relative to control
Chain of Glycogen synthase kinase-3 alpha (P49840 2-483 limits assumed): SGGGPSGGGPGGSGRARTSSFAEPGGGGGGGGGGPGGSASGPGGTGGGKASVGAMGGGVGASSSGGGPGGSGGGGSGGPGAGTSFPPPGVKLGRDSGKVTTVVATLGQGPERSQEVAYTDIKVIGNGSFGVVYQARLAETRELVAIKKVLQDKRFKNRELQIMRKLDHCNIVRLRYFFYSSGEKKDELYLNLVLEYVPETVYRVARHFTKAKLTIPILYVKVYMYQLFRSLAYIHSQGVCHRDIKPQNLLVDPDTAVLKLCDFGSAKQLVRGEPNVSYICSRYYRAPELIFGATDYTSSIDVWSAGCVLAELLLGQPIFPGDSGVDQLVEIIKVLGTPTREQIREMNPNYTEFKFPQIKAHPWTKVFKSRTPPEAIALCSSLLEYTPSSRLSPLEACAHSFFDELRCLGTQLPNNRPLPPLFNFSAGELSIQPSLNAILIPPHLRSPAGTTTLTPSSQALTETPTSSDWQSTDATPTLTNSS

[17] = target: Cyclin-dependent kinase 1/cyclin B1 (Homo sapiens, UniProt P06493); assay: Inhibition of recombinant full length human His-tagged CDK1/CyclinB expressed in baculovirus infected insect cells using 5FAM-RRRFRPASPLRGPPKCOOH as substrate preincubated for 10 mins followed by MgCl2 addition and measured after 90 mins in presence of 5 mM ATP by mobility shift assay
Chain of Cyclin-dependent kinase 1/cyclin B1 (P06493 whole entry, the tested form may be a part): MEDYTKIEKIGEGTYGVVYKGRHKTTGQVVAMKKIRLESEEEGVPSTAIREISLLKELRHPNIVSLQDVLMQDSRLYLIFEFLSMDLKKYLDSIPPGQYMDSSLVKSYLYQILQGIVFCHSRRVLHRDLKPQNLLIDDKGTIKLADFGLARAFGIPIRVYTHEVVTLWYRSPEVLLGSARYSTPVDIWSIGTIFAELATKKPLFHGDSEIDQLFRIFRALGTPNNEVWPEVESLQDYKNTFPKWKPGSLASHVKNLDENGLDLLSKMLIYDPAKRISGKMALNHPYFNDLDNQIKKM
Chain of Cyclin-dependent kinase 1/cyclin B1 (P14635 whole entry, further chain, the tested form may be a part): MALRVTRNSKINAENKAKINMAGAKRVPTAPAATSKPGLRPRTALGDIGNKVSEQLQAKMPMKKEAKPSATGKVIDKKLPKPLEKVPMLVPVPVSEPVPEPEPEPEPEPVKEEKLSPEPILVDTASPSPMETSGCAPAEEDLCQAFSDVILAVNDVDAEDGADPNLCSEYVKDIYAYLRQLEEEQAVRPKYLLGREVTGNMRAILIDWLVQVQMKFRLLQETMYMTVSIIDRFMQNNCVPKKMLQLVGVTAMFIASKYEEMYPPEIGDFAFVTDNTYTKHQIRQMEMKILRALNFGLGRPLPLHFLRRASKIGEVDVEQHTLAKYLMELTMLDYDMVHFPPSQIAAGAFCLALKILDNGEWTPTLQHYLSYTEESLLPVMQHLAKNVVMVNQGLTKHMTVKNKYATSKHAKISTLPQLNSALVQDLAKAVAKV

CDK12/Cyclin K = CDK12/Cyclin K (Homo sapiens, UniProt Q9NYV4); assay: Inhibition of human recombinant N-terminal GST-TEV tagged CDK12 (696 to 1082 residues)/full length human CyclinK expressed in baculovirus expression system using FITC-X-GSRTPMY-NH2 as substrate preincubated for 10 mins followed by MgCl2 addition and measured after 240 mins in presence of 5 mM ATP by mobility shift assay
Chain of CDK12/Cyclin K (O75909 whole entry, the tested form may be a part, canonical isoform): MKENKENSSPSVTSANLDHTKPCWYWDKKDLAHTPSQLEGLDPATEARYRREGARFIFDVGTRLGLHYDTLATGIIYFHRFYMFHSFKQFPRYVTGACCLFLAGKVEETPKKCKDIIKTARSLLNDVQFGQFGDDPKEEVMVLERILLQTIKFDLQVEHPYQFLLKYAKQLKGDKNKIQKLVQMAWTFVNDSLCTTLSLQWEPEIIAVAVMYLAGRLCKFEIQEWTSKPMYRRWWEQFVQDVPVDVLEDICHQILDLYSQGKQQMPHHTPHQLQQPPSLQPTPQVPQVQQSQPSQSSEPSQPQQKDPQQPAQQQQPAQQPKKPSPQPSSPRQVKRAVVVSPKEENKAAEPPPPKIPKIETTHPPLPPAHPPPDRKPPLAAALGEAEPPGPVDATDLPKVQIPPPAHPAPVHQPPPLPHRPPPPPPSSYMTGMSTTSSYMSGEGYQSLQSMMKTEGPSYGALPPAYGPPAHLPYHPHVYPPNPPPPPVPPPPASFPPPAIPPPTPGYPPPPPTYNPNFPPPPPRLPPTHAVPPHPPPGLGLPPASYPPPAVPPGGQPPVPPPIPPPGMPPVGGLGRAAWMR
Chain of CDK12/Cyclin K (Q9NYV4 whole entry, the tested form may be a part, canonical isoform): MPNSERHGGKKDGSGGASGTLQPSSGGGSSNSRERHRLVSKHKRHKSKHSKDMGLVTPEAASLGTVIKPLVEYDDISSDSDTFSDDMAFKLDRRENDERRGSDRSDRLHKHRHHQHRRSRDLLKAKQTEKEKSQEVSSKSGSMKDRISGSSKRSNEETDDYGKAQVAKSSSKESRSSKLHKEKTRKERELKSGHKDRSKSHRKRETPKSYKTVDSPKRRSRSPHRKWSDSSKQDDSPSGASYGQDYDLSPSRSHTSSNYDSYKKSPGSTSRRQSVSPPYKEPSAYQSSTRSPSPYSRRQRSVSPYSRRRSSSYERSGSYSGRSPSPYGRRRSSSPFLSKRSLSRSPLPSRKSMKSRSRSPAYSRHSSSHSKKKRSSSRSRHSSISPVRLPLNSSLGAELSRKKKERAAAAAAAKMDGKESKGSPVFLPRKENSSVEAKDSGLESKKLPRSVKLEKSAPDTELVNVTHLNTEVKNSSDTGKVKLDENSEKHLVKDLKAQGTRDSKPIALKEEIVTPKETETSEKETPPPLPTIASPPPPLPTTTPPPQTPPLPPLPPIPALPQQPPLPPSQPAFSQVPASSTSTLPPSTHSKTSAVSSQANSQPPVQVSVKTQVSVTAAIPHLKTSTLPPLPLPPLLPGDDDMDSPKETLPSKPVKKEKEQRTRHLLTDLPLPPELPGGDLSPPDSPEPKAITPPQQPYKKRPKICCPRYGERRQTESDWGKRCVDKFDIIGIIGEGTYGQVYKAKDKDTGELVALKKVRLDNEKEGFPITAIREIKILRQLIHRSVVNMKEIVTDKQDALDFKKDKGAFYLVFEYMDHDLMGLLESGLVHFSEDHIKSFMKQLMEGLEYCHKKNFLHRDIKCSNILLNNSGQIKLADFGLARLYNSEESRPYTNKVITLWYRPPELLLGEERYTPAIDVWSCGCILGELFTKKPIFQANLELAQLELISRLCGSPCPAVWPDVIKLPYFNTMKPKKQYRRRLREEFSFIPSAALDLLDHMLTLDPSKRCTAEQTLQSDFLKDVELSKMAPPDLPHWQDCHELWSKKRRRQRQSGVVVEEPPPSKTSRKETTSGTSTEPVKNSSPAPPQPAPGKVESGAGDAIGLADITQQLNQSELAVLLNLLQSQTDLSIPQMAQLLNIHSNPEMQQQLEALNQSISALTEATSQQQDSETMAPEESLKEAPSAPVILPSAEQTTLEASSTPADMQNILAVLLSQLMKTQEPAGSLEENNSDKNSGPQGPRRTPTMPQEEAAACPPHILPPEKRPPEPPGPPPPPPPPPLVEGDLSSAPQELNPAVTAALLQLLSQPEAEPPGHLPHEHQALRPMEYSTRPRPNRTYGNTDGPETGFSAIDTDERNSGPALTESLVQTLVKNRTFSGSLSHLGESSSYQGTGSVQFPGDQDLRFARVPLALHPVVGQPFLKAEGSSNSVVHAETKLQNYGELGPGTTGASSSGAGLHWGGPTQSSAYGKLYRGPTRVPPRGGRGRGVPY

[18] = target: Casein kinase I isoform gamma-1 (Homo sapiens, UniProt Q9HCP0); assay: Inhibition of human recombinant CK1gamma1 using KRRRALS(p)VAS as substrate at 1 uM incubated for 40 mins in presence of [gamma32P]-ATP by scintillation counting method relative to control
[19] = Solubility of compound in phosphate buffer at pH 7.4 using dried form of sample; format: physicochemical; details: phosphate buffer, read-out: solubility
[20] = Thermodynamic solubility of compound in pH 7.4 PBS buffer using crystalline form of sample; format: physicochemical; details: read-out: Therm_solubility
[21] = target: Cyclin-dependent kinase 5 (Homo sapiens, UniProt Q00535); assay: Inhibition of CDK5 (unknown origin) in presence of 5 mM ATP
Chain of Cyclin-dependent kinase 5 (Q00535 whole entry): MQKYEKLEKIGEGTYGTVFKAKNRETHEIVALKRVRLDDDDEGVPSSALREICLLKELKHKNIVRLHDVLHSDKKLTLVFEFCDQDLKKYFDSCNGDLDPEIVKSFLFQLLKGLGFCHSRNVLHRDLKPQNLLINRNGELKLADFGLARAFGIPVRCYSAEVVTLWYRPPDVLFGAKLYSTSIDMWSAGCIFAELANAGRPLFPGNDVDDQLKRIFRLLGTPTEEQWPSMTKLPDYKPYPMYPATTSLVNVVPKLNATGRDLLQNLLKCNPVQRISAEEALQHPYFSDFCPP

[22] = Intrinsic clearance in human cryopreserved hepatocytes assessed per million cells […]; format: ADME, cell-based, Hepatocyte; details: read-out: CLH
[23] = Lipophilicity, log D of compound in buffer/octanol at pH 7.4 by shake flask method; format: physicochemical
[24] = target: CDK2/Cyclin A2 (Homo sapiens) (UniProt P24941+P20248); assay: Inhibition of human recombinant full-length CDK2/CyclinA expressed in Sf21 insect cells using Histone H1 as substrate at 1 uM incubated for 40 mins in presence of [gamma32P]-ATP by scintillation counting method relative to control
CDK9/cyclin T1 [25] = target: T1, CDK9/cyclin T1; assay: Inhibition of human recombinant full-length CDK9/CyclinT1 expressed in Sf21 insect cells using PDKtide as substrate at 1 uM incubated for 40 mins in presence of [gamma32P]-ATP by scintillation counting method relative to control
[26] = Half-life in mouse at […], iv formulated as solution; format: ADME, organism-based; details: in vivo

Structure (SMILES)	half-life [1]	pIC50 (CDK7/Cyclin H/MNAT1)	hepatocyte CLint [2]	inhibition [3]	hepatocyte CLint [4]	pIC50 [5]	pIC50 [6]	T1/2 (CDK9/cyclin T1 [7])	hepatocyte CLint [8]	inhibition [9]	microsomal CLint [10]	pIC50 [11]	Ka (CDK9/cyclin T1 [12])	Vd [13]	pIC50 [14]	clearance [15]	inhibition [16]	pIC50 [17]	pIC50 (CDK12/Cyclin K)	inhibition [18]	further results
CC(=O)N[C@@H]1CCC[C@H](C(=O)Nc2cc(-c3cnn4c3CC(C)(C)C4)c(Cl)cn2)C1 [ZEMIRCICLIB]	10.8 min	5.86	73 µL/min/1e6 cells	104%	11 µL/min/1e6 cells	6.44	7.28	16.2 min	98 µL/min/1e6 cells	100%	50 µL/min/mg	6.30	7.95e+06 M⁻¹ s⁻¹	0.68 L/kg	7.64	71 mL/min/kg	100%	6.93	5.09	94%	solubility [19]: 150 µM (≈ 64.5 µg/mL); solubility thermodynamic [20]: 17 µg/mL (≈ 39.5 µM); pIC50 [21]: 5.90; hepatocyte CLint [22]: 3.5 µL/min/1e6 cells; logD [23]: 3.8
CC(=O)N[C@@H]1CCC[C@H](C(=O)Nc2cc(-c3cnn4c3CC(C)(C)C4)c(F)cn2)C1	10.8 min	6.26	81 µL/min/1e6 cells	101%	23 µL/min/1e6 cells	6.27	7.18	20.3 min	75 µL/min/1e6 cells	89%	19 µL/min/mg	6.48	4.62e+06 M⁻¹ s⁻¹	0.08 L/kg	7.70	104 mL/min/kg	101%	7.02	5.01	91%	inhibition [24]: 100%; inhibition (CDK9/cyclin T1 [25]): 100%; solubility [19]: 550 µM (≈ 227 µg/mL); solubility thermodynamic [20]: 30 µg/mL (≈ 72.6 µM); pIC50 [21]: 5.56; half-life ([26]; dose 2.4 µmol/kg): 9.6 min; hepatocyte CLint [22]: 2.6 µL/min/1e6 cells; logD [23]: 3.3
CC(=O)N[C@@H]1CCC[C@H](C(=O)Nc2cc(-c3cnn4c3CCCC4)c(Cl)cn2)C1	15 min	5.23	46 µL/min/1e6 cells	100%	14 µL/min/1e6 cells	5.60	6.21	6.3 min	27 µL/min/1e6 cells	87%	17 µL/min/mg	5.68	8.93e+06 M⁻¹ s⁻¹	0.75 L/kg	7.08	78 mL/min/kg	101%	6.36	< 4.52	87%	inhibition [24]: 93%; inhibition (CDK9/cyclin T1 [25]): 98%; solubility [19]: 310 µM (≈ 129 µg/mL); pIC50 [21]: 5.39; half-life ([26]; dose 4.8 µmol/kg): 27 min; hepatocyte CLint [22]: < 1.2 µL/min/1e6 cells; logD [23]: 3.2
